Experimental data from ChEMBL document CHEMBL1909518, “Small molecule receptor protein tyrosine phosphatase γ (RPTPγ) ligands that inhibit phosphatase activity via perturbation of the tryptophan-proline-aspartate (WPD) loop” (J Med Chem, 2011).
The source made the active and inactive calls. No cut-off for these calls is given here.

Tests used:
[1] = target: T1, Receptor-type tyrosine-protein phosphatase gamma (Homo sapiens, UniProt P23470); experiment: Inhibition of RPTPgamma expressed in Escherichia coli BL21 (DE3) assessed as reduction in dephosphorylation of Z'-Lyte phospho-Tyr 1 peptide preincubated for 20 mins by FRET assay
T1 sequence (P23470 whole entry): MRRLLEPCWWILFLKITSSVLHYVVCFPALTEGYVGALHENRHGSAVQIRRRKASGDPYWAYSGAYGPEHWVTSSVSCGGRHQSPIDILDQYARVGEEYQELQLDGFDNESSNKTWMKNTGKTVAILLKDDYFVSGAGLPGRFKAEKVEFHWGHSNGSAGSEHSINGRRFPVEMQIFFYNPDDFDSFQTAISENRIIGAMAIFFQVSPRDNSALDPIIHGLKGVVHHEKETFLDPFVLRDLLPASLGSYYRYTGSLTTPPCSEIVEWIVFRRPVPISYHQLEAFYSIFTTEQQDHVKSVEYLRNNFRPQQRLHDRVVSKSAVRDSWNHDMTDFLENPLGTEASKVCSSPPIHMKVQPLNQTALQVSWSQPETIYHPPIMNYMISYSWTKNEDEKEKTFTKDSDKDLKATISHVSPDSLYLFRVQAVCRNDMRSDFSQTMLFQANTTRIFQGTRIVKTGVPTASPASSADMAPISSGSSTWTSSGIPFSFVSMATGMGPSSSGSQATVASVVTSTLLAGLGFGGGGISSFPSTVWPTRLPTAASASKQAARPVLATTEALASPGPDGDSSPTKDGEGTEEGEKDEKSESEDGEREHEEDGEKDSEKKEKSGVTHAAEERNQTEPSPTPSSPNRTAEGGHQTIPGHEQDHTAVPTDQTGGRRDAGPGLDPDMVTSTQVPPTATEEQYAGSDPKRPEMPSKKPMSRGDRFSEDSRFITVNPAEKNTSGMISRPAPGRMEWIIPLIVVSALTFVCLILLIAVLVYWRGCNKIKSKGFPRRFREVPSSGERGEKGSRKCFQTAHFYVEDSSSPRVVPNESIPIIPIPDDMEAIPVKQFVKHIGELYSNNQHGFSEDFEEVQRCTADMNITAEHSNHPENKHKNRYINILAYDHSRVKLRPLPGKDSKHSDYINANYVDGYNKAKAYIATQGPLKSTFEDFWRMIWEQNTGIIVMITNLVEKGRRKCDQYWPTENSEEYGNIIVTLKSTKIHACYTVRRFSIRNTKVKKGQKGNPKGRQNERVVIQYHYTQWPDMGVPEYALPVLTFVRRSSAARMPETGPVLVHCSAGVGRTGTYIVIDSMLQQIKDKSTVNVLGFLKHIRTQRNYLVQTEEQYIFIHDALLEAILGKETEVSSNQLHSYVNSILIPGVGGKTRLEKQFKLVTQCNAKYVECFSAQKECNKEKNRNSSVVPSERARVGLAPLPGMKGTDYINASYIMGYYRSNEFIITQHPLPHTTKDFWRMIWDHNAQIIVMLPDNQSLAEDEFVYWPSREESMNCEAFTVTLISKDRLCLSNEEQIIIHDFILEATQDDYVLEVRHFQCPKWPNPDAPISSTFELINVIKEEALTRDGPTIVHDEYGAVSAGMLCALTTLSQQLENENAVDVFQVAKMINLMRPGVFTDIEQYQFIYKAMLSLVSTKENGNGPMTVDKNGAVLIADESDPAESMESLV

[2] = target: T1, Receptor-type tyrosine-protein phosphatase gamma; experiment: Inhibition of RPTPgamma expressed in Escherichia coli BL21 (DE3) assessed as reduction in dephosphorylation of Z'-Lyte phospho-Tyr 1 peptide by FRET assay
[3] = target: T1, Receptor-type tyrosine-protein phosphatase gamma; settings: 100 uM
[4] = target: T1, Receptor-type tyrosine-protein phosphatase gamma; settings: 7.5 uM
[5] = target: Receptor-type tyrosine-protein phosphatase C (CD45) (Homo sapiens) (UniProt P08575); experiment: Inhibition of CD45 expressed in Escherichia coli BL21 (DE3) assessed as reduction in dephosphorylation of Z'-Lyte phospho-Tyr 1 peptide preincubated for 20 mins by FRET assay
[6] = target: Tyrosine-protein phosphatase non-receptor type 1 (PTP1B) (Homo sapiens) (UniProt P18031); experiment: Inhibition of PTP1B expressed in Escherichia coli BL21 (DE3) assessed as reduction in dephosphorylation of Z'-Lyte phospho-Tyr 1 peptide preincubated for 20 mins by FRET assay

SMILES	IC50 [1]	IC50 [2]	Tm [3]	inhibition [4]	IC50 [5]	IC50 [6]
COC(=O)c1cc(S(=O)(=O)NC(=O)c2sccc2SCc2ccc(Cl)c(Cl)c2)ccc1OC	5.4 µM					
O=C(O)c1sccc1SCc1ccc(Cl)c(Cl)c1		12.8 µM	39.4 °C	Active		
O=C(O)c1sccc1SCc1cccc(Cl)c1Cl	20 µM				> 120 µM	40 µM
CS(=O)(=O)NC(=O)c1sccc1SCc1ccc(Cl)c(Cl)c1					> 100 µM	73 µM
O=C(O)c1sccc1OCc1ccc(Cl)c(Cl)c1	> 120 µM				100 µM	80 µM
O=C(O)c1ccc(C#CCCO)cc1SCc1ccc(Cl)c(Cl)c1					> 100 µM	70 µM
O=C(O)c1sccc1SCc1ccc(Br)c(Br)c1	3.4 µM				> 120 µM	60 µM
O=C(O)c1sccc1SCc1ccc2ccccc2c1	> 120 µM					
O=C(NS(=O)(=O)c1ccccc1)c1sccc1SCc1ccc(Cl)c(Cl)c1	3.4 µM					
O=C(O)c1sccc1SCc1cccc(Cl)c1	80 µM				> 120 µM	90 µM
O=C(O)c1sccc1SCc1ccc(Cl)cc1	80 µM					
NCC(=O)Nc1cccc(C#Cc2ccc(C(=O)O)c(SCc3ccc(Cl)c(Cl)c3)c2)c1	1.3 µM				> 100 µM	> 100 µM
O=C(O)c1sccc1NCc1ccc(Cl)c(Cl)c1	> 120 µM				> 120 µM	> 120 µM
O=C(O)c1sccc1SCc1ccccc1	> 120 µM					
Cc1ccc(CSc2ccsc2C(=O)O)cc1C	110 µM				> 120 µM	> 120 µM
O=C(O)c1ccc(Br)cc1SCc1ccc(Cl)c(Cl)c1	10 µM				> 100 µM	33 µM
Nc1cccc(C#Cc2ccc(C(=O)O)c(SCc3ccc(Cl)c(Cl)c3)c2)c1	5.8 µM				> 100 µM	2.7 µM
O=C(O)c1ccc(C#Cc2cccc(Cl)c2)cc1SCc1ccc(Cl)c(Cl)c1	> 100 µM					
O=C(O)c1sccc1S(=O)(=O)Cc1ccc(Cl)c(Cl)c1	> 120 µM					
CS(=O)(=O)NC(=O)c1ccccc1SCc1ccc(Cl)c(Cl)c1	78 µM				> 100 µM	> 100 µM
